In the assay the target is T1, D-glucose/D-galactose-binding protein (GGBP), mutant form GGBP/H152C labeled with BADAN (Escherichia coli, UniProt P0AEE5, H175C).
T1 construct: gene mglB; GGBP/H152C-BADAN (BADAN linked to Cys 152)
Briefly: BADAN fluorescence titration (Kd by nonlinear regression); stopped-flow binding kinetics.

T1 sequence (P0AEE5 24-332 H175C limits assumed): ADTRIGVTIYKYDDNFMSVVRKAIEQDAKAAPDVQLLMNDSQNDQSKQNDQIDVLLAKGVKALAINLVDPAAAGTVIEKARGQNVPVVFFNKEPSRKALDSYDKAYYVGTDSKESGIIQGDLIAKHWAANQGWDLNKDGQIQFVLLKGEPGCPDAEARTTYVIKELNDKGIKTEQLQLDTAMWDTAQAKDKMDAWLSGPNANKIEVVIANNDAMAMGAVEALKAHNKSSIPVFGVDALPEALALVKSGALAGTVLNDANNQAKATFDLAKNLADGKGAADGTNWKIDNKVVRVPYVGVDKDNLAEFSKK

`OC[C@H]1OC(O)[C@H](O)[C@@H](O)[C@@H]1O` (stereo partly shown) [Glc] came in with a Kd of 8.5 µM.

The term Kd denotes the equilibrium constant for the complex coming apart. Low values mean higher affinity, high ones lower affinity.

(Values after PMC3970809, “Spectral characteristics of the mutant form GGBP/H152C of D-glucose/D-galactose-binding protein labeled with fluorescent dye BADAN: influence of external factors” (PeerJ, 2014).)
